How the values were obtained:
[1] = tested on: Ca^2+ mediated PT pore formation; assay: Calcium retention capacity (CRC) assay, isolated WT mouse liver mitochondria; type: biochemical
Text: In order to assess the efficiency of compounds on Ca^2+ mediated PT pore formation we measured calcium retention capacity (CRC) of isolated mouse liver mitochondria. […] Energised mitochondria take up Ca^2+, resulting in a declining fluorescent signal following the Ca^2+ bolus induced peak. Mitochondria take up and buffer Ca^2+ up to a threshold when intramitochondrial [Ca^2+] reaches threshold to induce PT. […] The amount of Ca^2+ required to induce PT characterizes its Ca^2+ sensitivity and defines mitochondrial CRC. Inhibition of CypD, the Ca^2+ sensor of PT, thus leads to increased CRC.
Further experiments were carried out using the techniques discussed in Example 4.
Subcellular fractionation was performed as previously described (Astin et al, 2013). […] At 4° C., the liver was rinsed in PBS to remove excess blood, and any fat and connective tissue was eliminated. PBS was then replaced with isolation buffer containing 1 mM PMSF, and the liver was chopped into pieces (approximately 2 mm in length). Tissue was then homogenized in this solution until no solid matter remained, and then centrifuged at 800G for 10 minutes at 4° C. The nuclear pellet was then discarded, and the post nuclear supernatant retained, and centrifuged at 10300G for another 10 minutes at 4° C. The postmitochondrial supernatant was discarded, and the mitochondrial pellet was resuspended in isolation buffer and PMSF, and kept on ice. Protein levels were quantified using a ThermoScientific BCA protein quantification assay, as per manufacturer's instructions.
Isolated mitochondria were resuspended (500 μg protein/ml) in MSK buffer (75 mM mannitol, 25 mM sucrose, 5 mM potassium phosphate monobasic, 20 mM Tris-HCl, 100 mM KCl, and 0.1% bovine serum albumin, pH 7.4) supplemented with 10 mM succinate, 1 μM rotenone and 1 μM Fluo5N. 200 μl mitochondrial suspension per well was used in 96 well microplates. Compounds were incubated for ten minutes before the plate was assayed in a Fluostar Optima plate reader, using Ex/Em filters at 480/520 […]; CaCl2 was injected approximately every 6.5 minutes for 80 minutes (12 total injections, final concentration of 75 μM). To calculate % inhibition of Ca^2+ induced pore opening, first areas under each curve were calculated, and controls without CaCl2 addition were subtracted as background. The background corrected values were then expressed as the fraction of controls without mitochondria, representing the total amount of Ca^2+ added, unbuffered by mitochondria. Percentage inhibition for each [compound] was then calculated as the % of the corresponding value for the untreated condition. […] For experiments with CypD −/− mice, 100 ul mitochondrial suspension per well was used. CaCl2) was injected approximately every 6.5 minutes for 135 minutes (20 total injections, final concentration of 266 μM). Data were background corrected and expressed as the fraction of controls without mitochondria, and then normalised to the wild type no drug condition. Significance was assessed by one way ANOVA.

[2] = tested on: isolated rat liver mitochondria; assay: Mitochondrial functional parameters in isolated liver mitochondria; type: biochemical; details: Compound 1 up to 200 nM, CsA up to 1 μM
Experimental: Oxygen consumption was measured using Oroboros Oxygraph-2K as previously described (Astin et al, 2013). Prior to the assay, the Oxygraph chambers were calibrated with Miro5 buffer (0.5 mM EGTA, 3 mM MgCl2.6H2O, 60 mM K-lactobionate, 20 mM taurine, 10 mM KH2PO4, 20 mM HEPES, 110 mM sucrose, 1 g/l BSA (essentially fatty acid free)). Isolated mitochondria were suspended in Miro5 (at 100-200 μg/ml), loaded into the chamber together with substrates (malate, 2 mM; glutamate, 10 mM), and the O2 flow signal was allowed to stabilise to the basal respiration rate (approx. 10 min).
Freshly isolated mouse liver mitochondria were suspended in MSK buffer containing 10 ug/ml rhodamine123 (dequench mode), at a concentration of 500 ug/ml, and plated in an opaque black 96 well plate. Baseline fluorescence was then measured every 60 seconds for 5 minutes in a Fluostar Optima (Ex480/Em520) before manual addition of compounds (concentrations as specified). Fluorescence measurements were continued for 45 minutes until the addition of 2 uM FCCP, followed by a further 10 minutes of fluorescence readings.
Freshly isolated mitochondria were resuspended in MSK buffer (containing 10 mM glutamate and 2 mM malate) at 1 mg/ml and plated in opaque white 96 well plates, or for neuronal assays, neurons were used 9 days after plating at 15000 cells/well. Drugs were added at the concentrations specified, and for mitochondrial assays were incubated for ten minutes before addition of ADP (5 mM), followed by another 45 minutes. For neuronal assays, drugs were added in neurobasal medium and incubated for 60 minutes. Cell Titer Glo reagent was then added, and the plate shaken for 2 minutes in the dark to lyse cells/mitochondria and release ATP. The plates were incubated a further ten minutes and then luminescence values read using an Optima FluoStar.

CC[C@@H]1NC(=O)[C@H]([C@H](O)[C@H](C)C/C=C/CCC[n+]2cccc3ccccc32)N(C)C(=O)[C@H](C(C)C)N(C)C(=O)[C@H](CC(C)C)N(C)C(=O)[C@H](CC(C)C)N(C)C(=O)[C@@H](C)NC(=O)[C@H](C)NC(=O)[C@H](CC(C)C)N(C)C(=O)[C@H](C(C)C)NC(=O)[C@H](CC(C)C)N(C)C(=O)CN(C)C1=O [Compound 1, [Gly-(1S,2R,E)-8-quinolinium-1-hydroxy-2-methyloct-4-ene]^1 CsA]
ATP production ([2]; isolated mitochondria with substrates and ADP): Neither mitochondrial membrane potential (FIG. 4A,B), oxygen consumption (FIG. 4C, D) and ATP production (FIG. 4E, F) were affected
oxygen consumption ([2]; isolated mitochondria, glutamate and malate): Neither mitochondrial membrane potential (FIG. 4A,B), oxygen consumption (FIG. 4C, D) and ATP production (FIG. 4E, F) were affected
mitochondrial membrane potential ([2]; isolated mitochondria, rhodamine-123): Neither mitochondrial membrane potential (FIG. 4A,B), oxygen consumption (FIG. 4C, D) and ATP production (FIG. 4E, F) were affected
